For one experiment, the target named is T1, VIM-1 (Pseudomonas aeruginosa, UniProt A0A0F7KYQ8).
T1 construct: made in house; host or cells: ECM6711 strain carrying pUCP24-VIM-1 plasmid; culture supernatant used unpurified
In words: biochemical. The following applies: cleavage of nitrocefin (200 uM) by VIM-1 supernatant.

Experiment [1] addresses purified class A, C and D enzymes (Enterobacter cloacae, UniProt P05364). In kind it is biochemical. As to conditions: purified P99/AmpC of ECL; nitrocefin reporter substrate.
Experiment [2] has as its target T2, purified class A, C and D enzymes (UniProt Q6XEC0).
T2 construct: rows headed: Ki (OXA-48, NCF); other: purified OXA-48; nitrocefin reporter substrate
Type of experiment: biochemical. As to conditions: read-out: Ki (OXA-48, NCF); purified OXA-48; nitrocefin reporter substrate.

Experiment [3] addresses T3, purified class A, C and D enzymes (UniProt P0AD64, L31Q/G234S/E235K, species not given).
T3 construct: Ki (SHV-12, NCF); other: purified SHV-12; nitrocefin reporter substrate
T3 sequence (P0AD64 1-286 L31Q/G234S/E235K): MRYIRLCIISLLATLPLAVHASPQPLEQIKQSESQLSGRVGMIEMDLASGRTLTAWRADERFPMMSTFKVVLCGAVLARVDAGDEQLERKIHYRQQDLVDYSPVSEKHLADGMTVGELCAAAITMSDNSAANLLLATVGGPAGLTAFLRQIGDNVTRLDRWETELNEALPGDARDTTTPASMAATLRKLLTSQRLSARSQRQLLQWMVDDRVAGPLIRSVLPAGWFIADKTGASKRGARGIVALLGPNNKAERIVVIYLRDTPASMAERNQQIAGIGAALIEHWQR
In kind it is biochemical. The following applies: read-out: Ki (SHV-12, NCF); purified SHV-12; nitrocefin reporter substrate.

For experiment [4], the target named is purified class A, C and D enzymes (Escherichia coli, UniProt Q9L5C7). In kind it is biochemical. As to conditions: purified CTX-M-14; nitrocefin reporter substrate.
purified class A, C and D enzymes (Escherichia coli, UniProt Q9L5C7), sequence (Q9L5C7 entry or part of it): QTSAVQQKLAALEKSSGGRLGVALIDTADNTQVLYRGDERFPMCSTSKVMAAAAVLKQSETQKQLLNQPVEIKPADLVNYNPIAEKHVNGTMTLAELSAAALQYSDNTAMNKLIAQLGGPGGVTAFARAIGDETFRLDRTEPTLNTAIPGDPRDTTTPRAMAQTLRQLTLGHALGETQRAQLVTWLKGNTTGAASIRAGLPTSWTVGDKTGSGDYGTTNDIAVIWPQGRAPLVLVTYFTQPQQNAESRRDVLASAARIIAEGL
Experiment [5] has as its target T4, purified class A, C and D enzymes (UniProt Q9F663).
T4 construct: rows headed: Ki (KPC-2, NCF); other: purified KPC-2; nitrocefin reporter substrate
Type of experiment: biochemical. As to conditions: read-out: Ki (KPC-2, NCF); purified KPC-2; nitrocefin reporter substrate.

Experiment [6] deals with T5, NDM-1 (Klebsiella pneumoniae, UniProt C7C422). As to the kind of experiment: biochemical. As to conditions: cleavage of imipenem (100 uM) by NDM-1; read-out: Ki, Imipenem.
T5 sequence (C7C422 29-270, looked up, species assumed): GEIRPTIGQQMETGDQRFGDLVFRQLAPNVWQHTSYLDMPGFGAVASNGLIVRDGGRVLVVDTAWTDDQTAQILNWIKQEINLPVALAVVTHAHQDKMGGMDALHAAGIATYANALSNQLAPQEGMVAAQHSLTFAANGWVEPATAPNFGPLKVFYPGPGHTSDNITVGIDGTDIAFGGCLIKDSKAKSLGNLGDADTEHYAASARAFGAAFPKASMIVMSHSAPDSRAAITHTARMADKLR
Experiment [7] addresses T5, NDM-1. As to the kind of experiment: Inhibition of purified class B carbapenemase NDM-1 (Ki, imipenem substrate). In kind it is biochemical. As to conditions: NDM-1, substrate imipenem; read-out: Ki NDM-1, Imipenem.

purified class A, C and D enzymes (Enterobacter cloacae, UniProt P05364), sequence (P05364 21-381): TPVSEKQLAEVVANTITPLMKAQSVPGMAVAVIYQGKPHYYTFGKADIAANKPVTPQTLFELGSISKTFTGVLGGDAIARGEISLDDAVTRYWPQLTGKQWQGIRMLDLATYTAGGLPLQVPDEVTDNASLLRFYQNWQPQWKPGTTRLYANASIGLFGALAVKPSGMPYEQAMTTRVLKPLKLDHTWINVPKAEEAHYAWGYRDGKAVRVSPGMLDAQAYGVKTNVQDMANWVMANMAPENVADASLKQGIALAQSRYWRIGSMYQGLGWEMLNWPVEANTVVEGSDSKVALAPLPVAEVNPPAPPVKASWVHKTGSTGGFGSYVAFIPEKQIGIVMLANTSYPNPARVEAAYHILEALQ

Take `COc1ccc2c(c1C(=O)O)OB(O)[C@@H](Sc1nnc(NC3CNC3)s1)C2` [Compound 96, (3R)-3-[[5-(azetidin-3-ylamino)-1,3,4-thiadiazol-2-yl]sulfanyl]-2-hydroxy-7-methoxy-3,4-dihydro-1,2-benzoxaborinine-8-carboxylic acid]: the IC50 – broadly, the concentration needed to halve the response being measured – against VIM-1 is less than 1000 nM. Also, the “Ki (P99/AmpC of ECL, NCF)” value in experiment [1] is listed as “Y (0.1 μM to 1 μM)”. For the same compound, the Ki (as a rule, the dissociation constant of the complex between target and ligand, obtained from inhibition or displacement) in experiment [2] is less than 100 nM; in experiment [3] it was less than 100 nM; in experiment [5] it was 100 to 1000 nM; on NDM-1 [6], less than 10 nM; at NDM-1 [7], less than 10 nM. Moreover, the “Ki (CTX-M-14, NCF)” value in experiment [4] is listed as “X (Less than 0.1 μM)”.

Regarding `COc1cc(OC)c(C(=O)O)c2c1C[C@H](Sc1nnc(N)s1)B(O)O2` [Compound 32, (R)-3-(5-amino-1,3,4-thiadiazol-2-ylthio)-2-hydroxy-5,7-dimethoxy-3,4-dihydro-2H-benzo[e][1,2]oxaborinine-8-carboxylic acid], the IC50 at VIM-1 is not below 1000 nM. Further, the “Ki (P99/AmpC of ECL, NCF)” value in experiment [1] is reported as “X (Less than 0.1 μM)”. Besides, the Ki in experiment [2] was less than 100 nM; in experiment [3], less than 100 nM; in experiment [5] it was less than 100 nM; on NDM-1 [6], 10 to 100 nM; at NDM-1 [7], 10 to 100 nM. Moreover, the “Ki (CTX-M-14, NCF)” value in experiment [4] is listed as “X (Less than 0.1 μM)”.

`NC(=O)COc1ccc2c(c1C(=O)O)OB(O)[C@@H](Sc1nnc(N)s1)C2` [Compound 80, (3R)-7-(2-amino-2-oxo-ethoxy)-3-[(5-amino-1,3,4-thiadiazol-2-yl)sulfanyl]-2-hydroxy-3,4-dihydro-1,2-benzoxaborinine-8-carboxylic acid]: the IC50 against VIM-1 was less than 1000 nM. Besides, the “Ki (P99/AmpC of ECL, NCF)” value in experiment [1] is listed as “Y (0.1 μM to 1 μM)”. The Ki was less than 100 nM in experiment [2]; less than 100 nM in experiment [3]; 100 to 1000 nM in experiment [5]; more than 100 nM at NDM-1 [6]; more than 100 nM on NDM-1 [7]. Also, the “Ki (CTX-M-14, NCF)” value in experiment [4] is “X (Less than 0.1 μM)”.

The compound `COc1ccc2c(c1C(=O)O)OB(O)[C@@H](Sc1nncn1N)C2` [Compound 26, (R)-3-(4-amino-4H-1,2,4-triazol-3-ylthio)-2-hydroxy-7-methoxy-3,4-dihydro-2H-benzo[e][1,2]oxaborinine-8-carboxylic acid] yielded a half-inhibitory concentration (IC50) at VIM-1 of less than 1000 nM. Moreover, in experiment [1], the “Ki (P99/AmpC of ECL, NCF)” value is “Y (0.1 μM to 1 μM)”. The inhibition constant (Ki) was less than 100 nM in experiment [2]; less than 100 nM in experiment [3]; 100 to 1000 nM in experiment [5]; less than 10 nM on NDM-1 [6]; less than 10 nM on NDM-1 [7]. Besides, the “Ki (CTX-M-14, NCF)” value in experiment [4] is listed as “X (Less than 0.1 μM)”.

`N#CCS[C@H]1Cc2ccc(F)c(C(=O)O)c2OB1O` [Compound 51, (3R)-3-(cyanomethylsulfanyl)-7-fluoro-2-hydroxy-3,4-dihydro-1,2-benzoxaborinine-8-carboxylic acid] showed an IC50 against VIM-1 not below 1000 nM. For the same compound, the “Ki (P99/AmpC of ECL, NCF)” value in experiment [1] is “Z (Greater than 1 μM)”. Moreover, the Ki in experiment [2] was less than 100 nM; in experiment [3], less than 100 nM; in experiment [5], less than 100 nM; at NDM-1 [6] it was more than 100 nM; at NDM-1 [7], more than 100 nM. Moreover, the “Ki (CTX-M-14, NCF)” value in experiment [4] is “X (Less than 0.1 μM)”.

`COc1ccc2c(c1C(=O)O)OB(O)[C@@H](Sc1nnc(NCCCN)s1)C2` [Compound 100, (3R)-3-[[5-(3-aminopropylamino)-1,3,4-thiadiazol-2-yl]sulfanyl]-2-hydroxy-7-methoxy-3,4-dihydro-1,2-benzoxaborinine-8-carboxylic acid]: the IC50 against VIM-1 is less than 1000 nM. Further, the “Ki (P99/AmpC of ECL, NCF)” value in experiment [1] is recorded as “X (Less than 0.1 μM)”. Also, the inhibitory constant (Ki) in experiment [2] was less than 100 nM; in experiment [3], less than 100 nM; in experiment [5], 100 to 1000 nM; on NDM-1 [6], less than 10 nM; on NDM-1 [7], less than 10 nM. Besides, the “Ki (CTX-M-14, NCF)” value in experiment [4] was “X (Less than 0.1 μM)”.

With `O=C(O)c1c(F)ccc2c1OB(O)[C@@H](Sc1nncs1)C2` [Compound 59, (3R)-7-fluoro-2-hydroxy-3-(1,3,4-thiadiazol-2-ylsulfanyl)-3,4-dihydro-1,2-benzoxaborinine-8-carboxylic acid], the IC50 against VIM-1 was less than 1000 nM. The “Ki (P99/AmpC of ECL, NCF)” value in experiment [1] was “Y (0.1 μM to 1 μM)”. In addition, the Ki in experiment [2] is less than 100 nM; in experiment [3] it was less than 100 nM; in experiment [5] it was less than 100 nM; on NDM-1 [6], more than 100 nM; on NDM-1 [7], more than 100 nM. Besides, the “Ki (CTX-M-14, NCF)” value in experiment [4] is recorded as “X (Less than 0.1 μM)”.

In the case of `Cc1ccc2c(c1C(=O)O)OB(O)[C@@H](Sc1nnc(N)s1)C2` [Compound 31, (R)-3-(5-amino-1,3,4-thiadiazol-2-ylthio)-2-hydroxy-7-methyl-3,4-dihydro-2H-benzo[e][1,2]oxaborinine-8-carboxylic acid], the IC50 on VIM-1 is not below 1000 nM. The “Ki (P99/AmpC of ECL, NCF)” value in experiment [1] is recorded as “Y (0.1 μM to 1 μM)”. Also, the inhibition constant Ki in experiment [2] was less than 100 nM; in experiment [3] it was less than 100 nM; in experiment [5], 100 to 1000 nM; on NDM-1 [6], more than 100 nM; on NDM-1 [7], more than 100 nM. In experiment [4], the “Ki (CTX-M-14, NCF)” value is on record as “X (Less than 0.1 μM)”.

Take `COc1ccc2c(c1C(=O)O)OB(O)[C@@H](Sc1nnc(SCC(=N)N)s1)C2` [Compound 67, (3R)-3-[[5-(2-amino-2-imino-ethyl)sulfanyl-1,3,4-thiadiazol-2-yl]sulfanyl]-2-hydroxy-7-methoxy-3,4-dihydro-1,2-benzoxaborinine-8-carboxylic acid]: on VIM-1, the IC50 was less than 1000 nM. Besides, the “Ki (P99/AmpC of ECL, NCF)” value in experiment [1] is “Y (0.1 μM to 1 μM)”. The Ki in experiment [2] was less than 100 nM; in experiment [3], less than 100 nM; in experiment [5], 100 to 1000 nM; on NDM-1 [6] it was less than 10 nM; at NDM-1 [7], less than 10 nM. Besides, the “Ki (CTX-M-14, NCF)” value in experiment [4] is “X (Less than 0.1 μM)”.

For `O=C(O)c1c(F)ccc2c1OB(O)[C@@H](Sc1cnns1)C2` [Compound 48, (3R)-7-fluoro-2-hydroxy-3-(thiadiazol-5-ylsulfanyl)-3,4-dihydro-1,2-benzoxaborinine-8-carboxylic acid], the IC50 on VIM-1 is not below 1000 nM. Besides, in experiment [1], the “Ki (P99/AmpC of ECL, NCF)” value is listed as “Z (Greater than 1 μM)”. Moreover, the Ki in experiment [2] was less than 100 nM; in experiment [3], less than 100 nM; in experiment [5], 100 to 1000 nM; at NDM-1 [6], more than 100 nM; at NDM-1 [7], more than 100 nM. Further, the “Ki (CTX-M-14, NCF)” value in experiment [4] is recorded as “X (Less than 0.1 μM)”.

Turning to `O=C(O)c1c(F)ccc2c1OB(O)[C@@H](Sc1nnc(C(F)(F)F)s1)C2` [Compound 55, (3R)-7-fluoro-2-hydroxy-3-[[5-(trifluoromethyl)-1,3,4-thiadiazol-2-yl]sulfanyl]-3,4-dihydro-1,2-benzoxaborinine-8-carboxylic acid], the 50% inhibitory concentration (IC50) against VIM-1 was not below 1000 nM. Besides, the “Ki (P99/AmpC of ECL, NCF)” value in experiment [1] is listed as “Y (0.1 μM to 1 μM)”. The Ki was less than 100 nM in experiment [2]; 100 to 1000 nM in experiment [3]; 100 to 1000 nM in experiment [5]; more than 100 nM at NDM-1 [6]; more than 100 nM at NDM-1 [7]. Further, the “Ki (CTX-M-14, NCF)” value in experiment [4] was “Y (0.1 μM to 1 μM)”.

The compound `Nc1nnc(S[C@H]2Cc3ccc(Cl)c(C(=O)O)c3OB2O)s1` [Compound 36, (R)-3-(5-amino-1,3,4-thiadiazol-2-ylthio)-7-chloro-2-hydroxy-3,4-dihydro-2H-benzo[e][1,2]oxaborinine-8-carboxylic acid] returned a half-maximal inhibitory concentration (IC50) against VIM-1 not below 1000 nM. Further, the “Ki (P99/AmpC of ECL, NCF)” value in experiment [1] was “Z (Greater than 1 μM)”. Also, the inhibition constant Ki is less than 100 nM in experiment [2]; less than 100 nM in experiment [3]; less than 100 nM in experiment [5]; 10 to 100 nM on NDM-1 [6]; 10 to 100 nM at NDM-1 [7]. For the same compound, in experiment [4], the “Ki (CTX-M-14, NCF)” value is reported as “X (Less than 0.1 μM)”.

`NCc1cnc(S[C@H]2Cc3ccc(F)c(C(=O)O)c3OB2O)s1` [Compound 57, (3R)-3-[5-(aminomethyl)thiazol-2-yl]sulfanyl-7-fluoro-2-hydroxy-3,4-dihydro-1,2-benzoxaborinine-8-carboxylic acid] had an IC50 against VIM-1 of less than 1000 nM. Also, the “Ki (P99/AmpC of ECL, NCF)” value in experiment [1] is given as “Z (Greater than 1 μM)”. The Ki in experiment [2] was less than 100 nM; in experiment [3], less than 100 nM; in experiment [5] it was 100 to 1000 nM; at NDM-1 [6], 10 to 100 nM; on NDM-1 [7], 10 to 100 nM. Moreover, in experiment [4], the “Ki (CTX-M-14, NCF)” value is listed as “X (Less than 0.1 μM)”.

(Values after patent publication US10206937B2, “Boronic acid derivatives and therapeutic uses thereof” (Qpex Biopharma, Inc., priority 2014, dated 2019).)
